Test results: ChEMBL document CHEMBL1201862, “PubChem BioAssay data set” (2004)
Calls of active or inactive are those of the source.

Tests used:
[1] = off-target signal loss in HeLa-CEM21 co-culture – HeLa F-luc CTL cells, cherry-picked, counter-screen for HIV-1 Env fusion inhibitor project, dose response (AID 652040); assay type: functional, cell-based;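 note: potency for signal decrease marking cytotoxic or nonspecific inhibition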
[2] = HIV-1 AD8 envelope cell-cell fusion blockers – cherry-pick, dose response (AID 652062); assay type: functional, cell-based;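 note: luciferase signal from cell-cell fusion driven by HIV-1 clade B AD8 Env; potency is for inhibitors of fusion seen as a drop in luminescence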
[3] = blockers of HIV-1 ZM109 envelope-driven cell-cell fusion – HeLa effector, CEM target cells, luciferase, cherry-pick, dose response (AID 652058); assay type: functional, cell-based;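 note: luciferase signal from HIV-1 Env mediated cell-cell fusion of effector and target cells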
[4] = blockers of HIV-1 envelope-mediated cell-cell fusion – cherry-pick, dose response (AID 652057); assay type: functional, cell-based
[5] = biological target: T1, Ubiquitin-conjugating enzyme E2 N (Homo sapiens, UniProt P61088); assay type: functional;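 note: Dose-response confirmation in a TR-FRET assay detecting UBC13-driven polyubiquitin chain formation, inhibition measured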
T1 sequence (P61088 whole entry): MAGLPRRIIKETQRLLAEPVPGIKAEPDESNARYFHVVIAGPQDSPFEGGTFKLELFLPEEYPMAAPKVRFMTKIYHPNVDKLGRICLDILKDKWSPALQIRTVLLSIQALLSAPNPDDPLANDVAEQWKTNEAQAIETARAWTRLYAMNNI

cells = assay type: functional
[6] = THP-1 cell cytotoxicity, dose response, cytotoxicity control for non-replicating M. tuberculosis project (AID 489025); assay type: functional
[7] = Vero E6 cell cytotoxicity, dose response, cytotoxicity control for non-replicating M. tuberculosis project, secondary assay (AID 492998); assay type: functional, VeroE6; conditions: Vero C1008
P388/ADR = experiment: cells; assay type: functional; conditions: Mus musculus
SN12K1 = experiment: cells; assay type: functional; conditions: Homo sapiens
P388 = experiment: cells; assay type: functional; conditions: Mus musculus
Genome polyprotein = Genome polyprotein (dengue virus type 2, UniProt P29990); experiment: flavivirus cap methylation enzyme inhibition – biochemical, confirmation dose response, primary screen (AID 588689); assay type: functional
[8] = biological target: T2, High affinity choline transporter 1 (Homo sapiens, UniProt Q9GZV3); experiment: human choline transporter blockers, potency – cell-based, 5-point CRC, membrane potential dye, dose response (AID 504840); assay type: functional
T2 sequence (Q9GZV3 whole entry): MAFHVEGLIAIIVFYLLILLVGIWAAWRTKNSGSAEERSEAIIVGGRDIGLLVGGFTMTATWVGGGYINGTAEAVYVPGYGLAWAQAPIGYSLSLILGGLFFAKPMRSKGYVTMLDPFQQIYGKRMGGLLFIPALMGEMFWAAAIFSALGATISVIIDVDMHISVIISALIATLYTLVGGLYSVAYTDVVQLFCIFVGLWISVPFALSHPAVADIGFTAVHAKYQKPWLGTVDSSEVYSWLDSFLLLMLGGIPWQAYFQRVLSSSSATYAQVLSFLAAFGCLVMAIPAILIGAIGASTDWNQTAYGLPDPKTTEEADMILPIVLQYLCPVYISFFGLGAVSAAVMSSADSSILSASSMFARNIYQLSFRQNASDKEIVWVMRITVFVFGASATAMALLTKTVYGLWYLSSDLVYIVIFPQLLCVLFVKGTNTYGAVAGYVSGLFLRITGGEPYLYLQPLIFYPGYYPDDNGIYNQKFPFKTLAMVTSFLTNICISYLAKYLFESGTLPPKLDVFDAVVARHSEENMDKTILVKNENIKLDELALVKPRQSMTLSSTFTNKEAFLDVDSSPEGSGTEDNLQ

[9] = biological target: T3, Histone-lysine N-methyltransferase NSD2 (Homo sapiens, UniProt O96028); assay type: biochemical
T3 sequence (O96028 whole entry): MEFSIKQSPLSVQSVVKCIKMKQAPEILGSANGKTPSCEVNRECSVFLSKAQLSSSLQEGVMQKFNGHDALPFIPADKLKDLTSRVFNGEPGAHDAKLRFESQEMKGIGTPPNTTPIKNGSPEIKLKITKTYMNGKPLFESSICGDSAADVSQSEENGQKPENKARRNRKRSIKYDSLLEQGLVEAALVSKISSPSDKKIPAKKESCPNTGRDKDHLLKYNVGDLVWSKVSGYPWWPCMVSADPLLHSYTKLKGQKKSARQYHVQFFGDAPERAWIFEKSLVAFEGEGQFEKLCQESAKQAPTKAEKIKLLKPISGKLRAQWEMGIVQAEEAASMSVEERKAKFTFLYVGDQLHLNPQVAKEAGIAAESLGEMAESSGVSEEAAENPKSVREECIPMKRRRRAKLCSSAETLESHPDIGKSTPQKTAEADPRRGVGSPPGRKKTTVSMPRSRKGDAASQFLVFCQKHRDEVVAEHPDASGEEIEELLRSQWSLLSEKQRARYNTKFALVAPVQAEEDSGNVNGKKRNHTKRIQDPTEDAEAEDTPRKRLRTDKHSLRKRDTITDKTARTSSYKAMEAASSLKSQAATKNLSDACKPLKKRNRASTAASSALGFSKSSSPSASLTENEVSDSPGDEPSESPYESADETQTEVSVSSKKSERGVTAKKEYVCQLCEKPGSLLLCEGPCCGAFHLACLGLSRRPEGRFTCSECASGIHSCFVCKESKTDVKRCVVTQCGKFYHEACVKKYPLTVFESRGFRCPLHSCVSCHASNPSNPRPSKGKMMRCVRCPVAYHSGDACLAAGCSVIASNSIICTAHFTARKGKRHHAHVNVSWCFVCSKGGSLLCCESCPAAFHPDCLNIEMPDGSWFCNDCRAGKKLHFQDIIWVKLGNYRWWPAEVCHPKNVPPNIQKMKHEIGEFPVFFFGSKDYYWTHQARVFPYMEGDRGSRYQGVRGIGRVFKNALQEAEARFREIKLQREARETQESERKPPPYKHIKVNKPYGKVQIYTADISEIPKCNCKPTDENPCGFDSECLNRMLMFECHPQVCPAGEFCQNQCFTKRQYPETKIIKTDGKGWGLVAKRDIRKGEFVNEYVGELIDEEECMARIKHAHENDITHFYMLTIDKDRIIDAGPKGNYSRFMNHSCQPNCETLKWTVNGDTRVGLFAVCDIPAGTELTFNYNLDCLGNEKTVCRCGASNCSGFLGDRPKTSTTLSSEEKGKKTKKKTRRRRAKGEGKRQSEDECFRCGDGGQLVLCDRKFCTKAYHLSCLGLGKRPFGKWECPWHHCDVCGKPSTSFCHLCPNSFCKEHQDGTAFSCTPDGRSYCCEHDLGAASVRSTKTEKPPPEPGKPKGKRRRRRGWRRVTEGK

[10] = biological target: T4, Rac GTPase-activating protein 1 (Homo sapiens, UniProt Q9H0H5); experiment: blockers of MgcRacGAP-driven Rac1 GTP hydrolysis – biochemical, ADP Hunter fluorescence, primary and confirmatory, confirmation (AID 624330); assay type: functional
T4 sequence (Q9H0H5 whole entry): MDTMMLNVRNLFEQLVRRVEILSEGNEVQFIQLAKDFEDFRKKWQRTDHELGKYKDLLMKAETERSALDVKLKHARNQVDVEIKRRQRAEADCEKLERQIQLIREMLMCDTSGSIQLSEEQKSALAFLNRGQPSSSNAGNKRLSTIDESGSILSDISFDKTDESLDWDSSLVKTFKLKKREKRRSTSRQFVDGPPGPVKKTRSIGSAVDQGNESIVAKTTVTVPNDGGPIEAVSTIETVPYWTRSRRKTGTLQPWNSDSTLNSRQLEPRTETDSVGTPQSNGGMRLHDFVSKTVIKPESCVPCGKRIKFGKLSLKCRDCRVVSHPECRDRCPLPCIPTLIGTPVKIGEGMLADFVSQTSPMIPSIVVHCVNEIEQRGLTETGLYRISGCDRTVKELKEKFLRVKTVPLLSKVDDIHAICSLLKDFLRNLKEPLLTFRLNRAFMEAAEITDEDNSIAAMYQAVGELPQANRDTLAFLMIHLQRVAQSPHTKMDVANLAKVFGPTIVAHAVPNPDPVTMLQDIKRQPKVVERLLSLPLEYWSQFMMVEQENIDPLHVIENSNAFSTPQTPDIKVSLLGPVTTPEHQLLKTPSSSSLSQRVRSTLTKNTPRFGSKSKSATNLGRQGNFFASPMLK

[11] = biological target: FAD-linked sulfhydryl oxidase ALR (Homo sapiens, UniProt P55789); experiment: ALR-catalysed DTT oxidation blockers – biochemical, H2O2 detection, luminescence, cherry-pick, dose response (AID 493248)
[12] = biological target: DNA dC->dU-editing enzyme APOBEC-3A (Homo sapiens, UniProt P31941); experiment: A3A deaminase inhibition for selectivity – biochemical, dose response (AID 504722); assay type: functional
[13] = biological target: DNA dC->dU-editing enzyme APOBEC-3G (Homo sapiens, UniProt Q9HC16); experiment: Dose Response confirmation of small molecule APOBEC3G DNA Deaminase Inhibitors via a fluorescence-based single-stranded DNA deaminase assay. [Related pubchem assays (depositor defined):AID493012, AID493028]; assay type: functional
[14] = microbe, parasite or virus in culture; assay type: functional; conditions: Mycobacterium tuberculosis

Sequence of FAD-linked sulfhydryl oxidase ALR (P55789 whole entry): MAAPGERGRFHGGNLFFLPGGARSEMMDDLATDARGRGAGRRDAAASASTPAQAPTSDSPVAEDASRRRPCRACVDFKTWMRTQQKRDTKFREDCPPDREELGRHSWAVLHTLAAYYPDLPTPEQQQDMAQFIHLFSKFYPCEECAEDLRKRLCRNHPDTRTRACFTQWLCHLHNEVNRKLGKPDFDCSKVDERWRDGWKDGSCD
Sequence of DNA dC->dU-editing enzyme APOBEC-3A (P31941 whole entry): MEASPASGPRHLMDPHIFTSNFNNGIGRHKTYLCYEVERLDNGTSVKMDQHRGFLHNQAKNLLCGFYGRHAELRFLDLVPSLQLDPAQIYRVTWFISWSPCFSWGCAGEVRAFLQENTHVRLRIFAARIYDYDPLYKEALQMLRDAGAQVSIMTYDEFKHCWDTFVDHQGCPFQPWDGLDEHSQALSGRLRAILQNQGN
Sequence of DNA dC->dU-editing enzyme APOBEC-3G (Q9HC16 whole entry): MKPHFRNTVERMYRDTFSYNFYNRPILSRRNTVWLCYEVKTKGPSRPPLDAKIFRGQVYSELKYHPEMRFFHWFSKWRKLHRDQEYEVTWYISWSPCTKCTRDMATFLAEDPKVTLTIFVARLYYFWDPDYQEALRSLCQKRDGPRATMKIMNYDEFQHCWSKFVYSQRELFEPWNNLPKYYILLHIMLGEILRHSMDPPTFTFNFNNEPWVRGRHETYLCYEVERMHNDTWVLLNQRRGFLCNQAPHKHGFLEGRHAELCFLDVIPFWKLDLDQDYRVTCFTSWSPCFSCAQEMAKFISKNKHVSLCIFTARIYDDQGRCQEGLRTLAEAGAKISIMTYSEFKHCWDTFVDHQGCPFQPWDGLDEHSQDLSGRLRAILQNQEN
Sequence of Genome polyprotein (P29990 2492-3391 limits assumed): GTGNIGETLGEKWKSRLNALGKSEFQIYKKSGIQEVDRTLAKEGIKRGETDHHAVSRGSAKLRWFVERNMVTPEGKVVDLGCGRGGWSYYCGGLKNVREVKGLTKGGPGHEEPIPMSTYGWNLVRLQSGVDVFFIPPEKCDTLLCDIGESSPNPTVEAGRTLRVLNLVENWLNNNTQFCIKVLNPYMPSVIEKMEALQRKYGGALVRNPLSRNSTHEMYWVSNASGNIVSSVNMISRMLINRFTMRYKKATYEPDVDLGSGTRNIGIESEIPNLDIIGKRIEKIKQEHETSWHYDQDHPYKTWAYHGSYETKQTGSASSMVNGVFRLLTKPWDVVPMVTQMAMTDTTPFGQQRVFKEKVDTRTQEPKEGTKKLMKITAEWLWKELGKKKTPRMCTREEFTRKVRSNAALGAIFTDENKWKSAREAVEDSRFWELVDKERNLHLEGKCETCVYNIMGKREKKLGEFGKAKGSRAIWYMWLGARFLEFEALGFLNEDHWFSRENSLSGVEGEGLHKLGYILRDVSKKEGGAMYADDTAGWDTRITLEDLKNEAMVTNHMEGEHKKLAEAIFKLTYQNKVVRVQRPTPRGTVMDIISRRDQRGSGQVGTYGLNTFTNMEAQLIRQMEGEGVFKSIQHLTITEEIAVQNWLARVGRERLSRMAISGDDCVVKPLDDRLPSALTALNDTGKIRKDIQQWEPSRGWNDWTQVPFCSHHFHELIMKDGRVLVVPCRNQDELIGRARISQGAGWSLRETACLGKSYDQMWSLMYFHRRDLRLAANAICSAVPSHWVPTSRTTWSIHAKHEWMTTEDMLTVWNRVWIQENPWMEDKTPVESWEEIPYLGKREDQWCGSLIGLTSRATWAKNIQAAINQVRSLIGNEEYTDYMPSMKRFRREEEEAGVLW

COC(=O)C1=C(C)N(Cc2ccc(Cl)cc2)C(=S)NC1c1ccc(OC)cc1 (stereo not drawn)
AC50 [1]: 5.7 µM (active)
AC50 [2]: 12.6 µM (active)
AC50 [3]: 5.23 µM (active)
AC50 [4]: 3.25 µM (active)

CN(C)CCCNc1nc2sc3c(c2c(=O)n1CCc1ccccc1)CCCCC3
IC50 [5]: > 20 µM (inactive)
IC50 (cells): 23.3 µM (active)
CC50 [6]: 19.5 µM (active)
CC50 [7]: 14.4 µM (active)

S=P(N1CC1)(N1CC1)N1CC1 [THIOTEPA]
GI50 (P388/ADR): 7.41 µM (inactive)
GI50 (SN12K1): > 89.1 µM (inactive)
GI50 (P388): 6.93 µM (inactive)

Cc1sc2ncnc(N3CCC(C(=O)Nc4cc(S(C)(=O)=O)ccc4Cl)CC3)c2c1C
AC50 [1]: 30.5 µM (active)
AC50 [2]: 12.3 µM (active)
AC50 [3]: 3.3 µM (active)
AC50 [4]: 8.97 µM (active)

CCOc1ccc(/C=C2\SC(=S)N(NS(=O)(=O)c3ccccc3)C2=O)cc1OC
IC50 (Genome polyprotein): 71.2 µM (active)
IC50 [8]: 5.37 µM (active)

Cc1ccnc(NCc2c(O)ccc3ccccc23)c1
IC50 [5]: > 20 µM (inactive)

COc1ccc(C)cc1NCc1ccc(OC)c(C)c1OC
AC50 [9]: > 20 µM (inactive)
IC50 [10]: 59.5 µM (active)

COc1cccc(/C=C2\SC(N3CCCC(C)C3)=NC2=O)c1OC (stereo not drawn)
AC50 [11]: 5.2 µM (active)

Clc1nnc(N2CCCCC2)c2ccccc12
AC50 [11]: 17.1 µM (active)

CC(=O)NCCCc1c[nH]c2ccc(Cl)cc12
AC50 [11]: 13.5 µM (active)

CC1(C)CC(=O)c2cnn(-c3nc4ccccc4[nH]3)c2C1
AC50 [11]: 14.8 µM (active)

Cc1nnc(S)n1/N=C/c1ccc(-c2ccccc2[N+](=O)[O-])o1
IC50 [12]: > 100 µM (inactive)
IC50 [13]: 4.2 µM (active)

CCN(CC)S(=O)(=O)c1ccc(NC2c3ccccc3C(=O)N2Cc2ccc3c(c2)OCO3)cc1 (stereo not drawn)
AC50 [1]: 3.71 µM (active)
AC50 [3]: 7.39 µM (active)
AC50 [4]: 1.33 µM (active)

COc1ccccc1CCNC(=O)c1ccc(OC)c(OC2CCN(C(C)C)CC2)c1
IC50 [8]: 13.5 µM (active)

O=C(C(=O)N1CCOCC1)c1cn(Cc2ccccc2Cl)c2ccccc12
IC50 [5]: > 20 µM (inactive)

COC1C(C)OC(OC2CC(C)(O)Cc3cc4c(c(O)c32)C(=O)c2c(O)cc3c(c2C4=O)OC2OC3(C)C(O)C(N(C)C)C2O)C(OC)C1(C)OC (stereo not drawn)
GI50 (P388/ADR): 0.5 µM (active)
GI50 (SN12K1): 0.0168 µM (active)
GI50 (P388): 0.0228 µM (active)

COc1cc(-c2ccc(/N=N/c3c(S(=O)(=O)O)cc4cc(S(=O)(=O)O)cc(N)c4c3O)c(OC)c2)ccc1/N=N/c1c(S(=O)(=O)O)cc2cc(S(=O)(=O)O)cc(N)c2c1O
GI50 (SN12K1): > 100 µM (inactive)
GI50 (P388): > 100 µM (inactive)

CCCCCn1c(=O)c2ccccc2n2c(CCl)nnc12
CC50 [14]: 11.7 µM (active)
IC50 (cells): 0.67 µM (active)
CC50 [6]: 19.2 µM (active)
CC50 [7]: > 20 µM (active)

Nc1ccc(-c2nc3cc(N)ccc3s2)cc1
AC50 [11]: 1.43 µM (active)

COc1ccc(S(=O)(=O)N2CCCCC2)cc1NC(=O)Cc1ccsc1
AC50 [9]: 17.1 µM (active)

CN(C)S(=O)(=O)c1ccc(N2CCCC2)c(C(=O)NCCc2ccc(F)cc2)c1
AC50 [1]: 9.35 µM (active)
AC50 [2]: 6.5 µM (active)
AC50 [3]: 5.76 µM (active)
AC50 [4]: 5.95 µM (active)

C[C@H]1CC[C@H](NC(=O)N(CCCl)N=O)CC1
GI50 (P388/ADR): 9.73 µM (inactive)
GI50 (SN12K1): 26 µM (inactive)
GI50 (P388): 9.53 µM (inactive)

O=C(CSc1nc2ccsc2c(=O)n1Cc1ccccc1)NCC1CCCO1 (stereo not drawn)
IC50 [5]: > 20 µM (inactive)

O=NN(CCCl)C(=O)NC1CCC(=O)NC1=O (stereo not drawn)
GI50 (P388/ADR): 23.4 µM (inactive)
GI50 (SN12K1): 107 µM (inactive)
GI50 (P388): 17.8 µM (inactive)

CCn1c(CSc2nc3ccccc3[nH]2)n[nH]c1=S
IC50 [12]: > 100 µM (inactive)
IC50 [13]: 5.44 µM (active)

O=C(NCC1CCCCC1)C1(CC2CC(c3ccc(Cl)cc3)=NO2)CCNCC1 (stereo not drawn)
IC50 [5]: > 20 µM (inactive)

CCC[S+]([O-])c1nc(COC(=O)NC)c(COC(=O)NC)n1C (stereo not drawn)
GI50 (P388/ADR): > 100 µM (inactive)
GI50 (SN12K1): > 100 µM (inactive)
GI50 (P388): > 100 µM (inactive)

COc1ccc(-c2csc(Cc3nnc4n3CCCCC4)n2)cc1
IC50 [8]: 9.12 µM (active)

COc1cc[n+](C)cc1
GI50 (P388/ADR): > 100 µM (inactive)
GI50 (SN12K1): > 100 µM (inactive)
GI50 (P388): > 100 µM (inactive)
